Reference: ChEMBL document CHEMBL2069252, “Pyrazole diaminopyrimidines as dual inhibitors of KDR and Aurora B kinases” (Bioorg Med Chem Lett, 2012)
In brackets after ≈: the same amount, converted by molar mass.

Target: Aurora kinase B (Homo sapiens, UniProt Q96GD4)
Experiment: Inhibition of Aurora B kinase by HTRF analysis in presence of 1 mM ATP
Conditions: not given

Chain of Aurora kinase B (Q96GD4 whole entry): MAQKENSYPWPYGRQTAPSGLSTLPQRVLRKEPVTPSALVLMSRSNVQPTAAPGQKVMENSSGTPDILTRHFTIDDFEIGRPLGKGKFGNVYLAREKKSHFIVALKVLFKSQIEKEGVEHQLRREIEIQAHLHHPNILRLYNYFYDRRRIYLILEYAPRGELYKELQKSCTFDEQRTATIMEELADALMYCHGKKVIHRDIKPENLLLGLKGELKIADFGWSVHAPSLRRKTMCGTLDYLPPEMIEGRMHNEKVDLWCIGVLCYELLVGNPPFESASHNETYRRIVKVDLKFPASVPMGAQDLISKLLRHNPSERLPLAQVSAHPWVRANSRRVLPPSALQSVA

Row | SMILES | IC50 [nM]
1 | NC(=O)Cn1cc(Nc2ncc(Cl)c(N[C@H]3[C@@H](C(N)=O)[C@@H]4C=C[C@H]3C4)n2)cn1 | 25
2 | NC(=O)[C@@H]1[C@H](Nc2nc(Nc3cnn([C@@H]4CCCNC4)c3)ncc2Cl)[C@H]2C=C[C@@H]1C2 | 12
3 | Cn1cc(Nc2ncc(C(F)(F)F)c(Nc3ccccc3C(N)=O)n2)cn1 | 16
4 | NC(=O)[C@@H]1[C@H](Nc2nc(Nc3cnn(CC(=O)O)c3)ncc2Cl)[C@H]2C=C[C@@H]1C2 | 32
5 | Cc1cc(Nc2ncc(F)c(N[C@H]3[C@@H](C(N)=O)[C@@H]4C=C[C@H]3C4)n2)ccc1N1CCN(C)CC1 | 54
6 | Cn1cc(Nc2ncc(F)c(N[C@H]3[C@@H](C(N)=O)[C@@H]4C=C[C@H]3C4)n2)cn1 | 29
7 | Cn1cc(Nc2ncc(C(F)(F)F)c(N[C@H]3[C@@H](C(N)=O)C[C@H]4C[C@@H]3C4(C)C)n2)cn1 | 43
8 | Cn1cc(Nc2ncc(C(F)(F)F)c(N[C@H]3[C@@H](C(=O)NCCO)[C@@H]4C=C[C@H]3C4)n2)cn1 | 99
9 | Cn1cc(Nc2ncc([N+](=O)[O-])c(N[C@H]3[C@@H](C(N)=O)[C@@H]4C=C[C@H]3C4)n2)cn1 | 15
10 | NC(=O)[C@@H]1[C@H](Nc2nc(Nc3cnn(CCO)c3)ncc2Cl)[C@H]2C=C[C@@H]1C2 | 19
11 | NC(=O)[C@@H]1[C@H](Nc2nc(Nc3cnn(C4CCNCC4)c3)ncc2Cl)[C@H]2C=C[C@@H]1C2 | 12
12 | COc1cnc(Nc2cnn(C)c2)nc1N[C@H]1[C@@H](C(N)=O)[C@@H]2C=C[C@H]1C2 | 145
13 | Cn1cc(Nc2ncc(Cl)c(N[C@@H]3CCCC[C@@H]3C(N)=O)n2)cn1 | 135
14 | NC(=O)[C@@H]1[C@H](Nc2nc(Nc3cnn(C[C@H]4CCCN4)c3)ncc2Cl)[C@H]2C=C[C@@H]1C2 | 15
15 | CNC(=O)[C@@H]1[C@H](Nc2nc(Nc3cnn(C)c3)ncc2C(F)(F)F)[C@H]2C=C[C@@H]1C2 | 45
16 | CNC(=O)Cn1cc(Nc2ncc(Cl)c(N[C@H]3[C@@H](C(N)=O)[C@@H]4C=C[C@H]3C4)n2)cn1 | 26

System: not listed separately
Experiment: AUC in CD1(ICR) mouse at 10 mg/kg, ip
Format: ADME, organism-based
Set-up: dose 10 mg/kg, route intraperitoneal
Conditions: plasma

Row | SMILES | AUC [µM·h]
17 | NC(=O)Cn1cc(Nc2ncc(Cl)c(N[C@H]3[C@@H](C(N)=O)[C@@H]4C=C[C@H]3C4)n2)cn1 | 15
18 | NC(=O)[C@@H]1[C@H](Nc2nc(Nc3cnn([C@@H]4CCCNC4)c3)ncc2Cl)[C@H]2C=C[C@@H]1C2 | 15.7
19 | NC(=O)[C@@H]1[C@H](Nc2nc(Nc3cnn(CCO)c3)ncc2Cl)[C@H]2C=C[C@@H]1C2 | 5
20 | NC(=O)[C@@H]1[C@H](Nc2nc(Nc3cnn(C4CCNCC4)c3)ncc2Cl)[C@H]2C=C[C@@H]1C2 | 2
21 | NC(=O)[C@@H]1[C@H](Nc2nc(Nc3cnn(C[C@H]4CCCN4)c3)ncc2Cl)[C@H]2C=C[C@@H]1C2 | 12.7
22 | CNC(=O)Cn1cc(Nc2ncc(Cl)c(N[C@H]3[C@@H](C(N)=O)[C@@H]4C=C[C@H]3C4)n2)cn1 | 6.68

Target: T1, Vascular endothelial growth factor receptor 2 (Homo sapiens, UniProt P35968)
T1 sequence (P35968 whole entry): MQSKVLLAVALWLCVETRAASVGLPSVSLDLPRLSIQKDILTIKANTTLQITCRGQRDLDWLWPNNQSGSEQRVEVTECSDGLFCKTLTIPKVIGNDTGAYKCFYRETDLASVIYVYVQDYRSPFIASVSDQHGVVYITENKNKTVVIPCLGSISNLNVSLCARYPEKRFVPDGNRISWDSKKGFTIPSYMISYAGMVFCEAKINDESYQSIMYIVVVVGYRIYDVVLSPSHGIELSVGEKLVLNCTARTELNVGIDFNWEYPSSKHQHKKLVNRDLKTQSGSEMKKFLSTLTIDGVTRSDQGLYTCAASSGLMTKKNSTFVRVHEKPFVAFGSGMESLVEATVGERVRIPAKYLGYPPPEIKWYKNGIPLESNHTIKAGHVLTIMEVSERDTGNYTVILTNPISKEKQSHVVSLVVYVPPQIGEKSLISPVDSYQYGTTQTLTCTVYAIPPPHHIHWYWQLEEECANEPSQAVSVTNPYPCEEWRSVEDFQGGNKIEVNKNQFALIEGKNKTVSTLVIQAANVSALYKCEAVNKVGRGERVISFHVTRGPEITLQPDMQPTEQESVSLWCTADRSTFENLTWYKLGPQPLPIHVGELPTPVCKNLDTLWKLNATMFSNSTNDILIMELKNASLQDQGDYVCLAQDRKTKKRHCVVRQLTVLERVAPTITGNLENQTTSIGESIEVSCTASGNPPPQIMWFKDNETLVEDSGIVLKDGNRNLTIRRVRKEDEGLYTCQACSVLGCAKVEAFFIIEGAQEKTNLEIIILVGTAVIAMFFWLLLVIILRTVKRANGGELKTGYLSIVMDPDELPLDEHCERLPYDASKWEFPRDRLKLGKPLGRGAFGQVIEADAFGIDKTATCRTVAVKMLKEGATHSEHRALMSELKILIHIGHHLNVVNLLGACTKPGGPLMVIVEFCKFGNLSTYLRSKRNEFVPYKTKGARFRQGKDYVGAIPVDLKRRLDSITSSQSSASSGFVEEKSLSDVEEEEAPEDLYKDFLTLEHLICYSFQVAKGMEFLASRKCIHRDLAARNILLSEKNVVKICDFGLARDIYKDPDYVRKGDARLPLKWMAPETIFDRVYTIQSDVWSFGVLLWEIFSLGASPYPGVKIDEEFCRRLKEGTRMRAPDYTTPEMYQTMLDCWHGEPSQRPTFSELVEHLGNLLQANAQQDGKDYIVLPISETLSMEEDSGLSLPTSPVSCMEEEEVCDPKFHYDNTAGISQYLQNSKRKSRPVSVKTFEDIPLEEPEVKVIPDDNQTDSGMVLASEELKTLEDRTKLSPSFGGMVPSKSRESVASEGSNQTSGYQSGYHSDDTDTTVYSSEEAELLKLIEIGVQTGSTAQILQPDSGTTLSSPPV
Experiment: Inhibition of human KDR autophosphorylation expressed in mouse NIH/3T3 cells
Format: cell-based, NIH3T3
Conditions: not given

Row | SMILES | IC50 [nM]
23 | NC(=O)Cn1cc(Nc2ncc(Cl)c(N[C@H]3[C@@H](C(N)=O)[C@@H]4C=C[C@H]3C4)n2)cn1 | 167
24 | NC(=O)[C@@H]1[C@H](Nc2nc(Nc3cnn([C@@H]4CCCNC4)c3)ncc2Cl)[C@H]2C=C[C@@H]1C2 | 44
25 | NC(=O)[C@@H]1[C@H](Nc2nc(Nc3cnn(CC(=O)O)c3)ncc2Cl)[C@H]2C=C[C@@H]1C2 | > 316
26 | Cn1cc(Nc2ncc([N+](=O)[O-])c(N[C@H]3[C@@H](C(N)=O)[C@@H]4C=C[C@H]3C4)n2)cn1 | > 316
27 | NC(=O)[C@@H]1[C@H](Nc2nc(Nc3cnn(CCO)c3)ncc2Cl)[C@H]2C=C[C@@H]1C2 | 48
28 | NC(=O)[C@@H]1[C@H](Nc2nc(Nc3cnn(C4CCNCC4)c3)ncc2Cl)[C@H]2C=C[C@@H]1C2 | 55
29 | NC(=O)[C@@H]1[C@H](Nc2nc(Nc3cnn(C[C@H]4CCCN4)c3)ncc2Cl)[C@H]2C=C[C@@H]1C2 | 49
30 | CNC(=O)[C@@H]1[C@H](Nc2nc(Nc3cnn(C)c3)ncc2C(F)(F)F)[C@H]2C=C[C@@H]1C2 | > 316
31 | CNC(=O)Cn1cc(Nc2ncc(Cl)c(N[C@H]3[C@@H](C(N)=O)[C@@H]4C=C[C@H]3C4)n2)cn1 | 89

Target: T1, Vascular endothelial growth factor receptor 2
Experiment: Inhibition of KDR by HTRF analysis in presence of 1 mM ATP
Conditions: not given

Row | SMILES | IC50 [nM]
32 | NC(=O)Cn1cc(Nc2ncc(Cl)c(N[C@H]3[C@@H](C(N)=O)[C@@H]4C=C[C@H]3C4)n2)cn1 | 18
33 | NC(=O)[C@@H]1[C@H](Nc2nc(Nc3cnn([C@@H]4CCCNC4)c3)ncc2Cl)[C@H]2C=C[C@@H]1C2 | 2
34 | Cn1cc(Nc2ncc(C(F)(F)F)c(Nc3ccccc3C(N)=O)n2)cn1 | 431
35 | NC(=O)[C@@H]1[C@H](Nc2nc(Nc3cnn(CC(=O)O)c3)ncc2Cl)[C@H]2C=C[C@@H]1C2 | 1
36 | Cn1cc(Nc2ncc(F)c(N[C@H]3[C@@H](C(N)=O)[C@@H]4C=C[C@H]3C4)n2)cn1 | 329
37 | Cn1cc(Nc2ncc(C(F)(F)F)c(N[C@H]3[C@@H](C(N)=O)C[C@H]4C[C@@H]3C4(C)C)n2)cn1 | 264
38 | Cn1cc(Nc2ncc(C(F)(F)F)c(N[C@H]3[C@@H](C(=O)NCCO)[C@@H]4C=C[C@H]3C4)n2)cn1 | 266
39 | Cn1cc(Nc2ncc([N+](=O)[O-])c(N[C@H]3[C@@H](C(N)=O)[C@@H]4C=C[C@H]3C4)n2)cn1 | 50
40 | NC(=O)[C@@H]1[C@H](Nc2nc(Nc3cnn(CCO)c3)ncc2Cl)[C@H]2C=C[C@@H]1C2 | 6
41 | NC(=O)[C@@H]1[C@H](Nc2nc(Nc3cnn(C4CCNCC4)c3)ncc2Cl)[C@H]2C=C[C@@H]1C2 | 2
42 | COc1cnc(Nc2cnn(C)c2)nc1N[C@H]1[C@@H](C(N)=O)[C@@H]2C=C[C@H]1C2 | 922
43 | Cn1cc(Nc2ncc(Cl)c(N[C@@H]3CCCC[C@@H]3C(N)=O)n2)cn1 | 169
44 | NC(=O)[C@@H]1[C@H](Nc2nc(Nc3cnn(C[C@H]4CCCN4)c3)ncc2Cl)[C@H]2C=C[C@@H]1C2 | 15
45 | CNC(=O)[C@@H]1[C@H](Nc2nc(Nc3cnn(C)c3)ncc2C(F)(F)F)[C@H]2C=C[C@@H]1C2 | 68
46 | CNC(=O)Cn1cc(Nc2ncc(Cl)c(N[C@H]3[C@@H](C(N)=O)[C@@H]4C=C[C@H]3C4)n2)cn1 | 6

System: not listed separately
Experiment: Metabolic stability of the compound in mouse liver microsomes assessed as compound remaining after 30 mins
Format: ADME, Microsome
Conditions: read-out: Stability

Row | SMILES | remaining at 0.5 h [%]
47 | NC(=O)Cn1cc(Nc2ncc(Cl)c(N[C@H]3[C@@H](C(N)=O)[C@@H]4C=C[C@H]3C4)n2)cn1 | 68
48 | NC(=O)[C@@H]1[C@H](Nc2nc(Nc3cnn([C@@H]4CCCNC4)c3)ncc2Cl)[C@H]2C=C[C@@H]1C2 | 48
49 | NC(=O)[C@@H]1[C@H](Nc2nc(Nc3cnn(CC(=O)O)c3)ncc2Cl)[C@H]2C=C[C@@H]1C2 | > 95
50 | NC(=O)[C@@H]1[C@H](Nc2nc(Nc3cnn(CCO)c3)ncc2Cl)[C@H]2C=C[C@@H]1C2 | 45
51 | NC(=O)[C@@H]1[C@H](Nc2nc(Nc3cnn(C4CCNCC4)c3)ncc2Cl)[C@H]2C=C[C@@H]1C2 | 76
52 | NC(=O)[C@@H]1[C@H](Nc2nc(Nc3cnn(C[C@H]4CCCN4)c3)ncc2Cl)[C@H]2C=C[C@@H]1C2 | 48
53 | CNC(=O)Cn1cc(Nc2ncc(Cl)c(N[C@H]3[C@@H](C(N)=O)[C@@H]4C=C[C@H]3C4)n2)cn1 | 88

System: NCI-H1299
Experiment: Cell cycle arrest in human NCI-H1299 cells assessed as induction of polyploidy after 48 hrs by Hoechst staining-based fluorescence microscopic analysis
Format: functional
Conditions: NCI-H1299, 48 h

Row | SMILES | EC15 [nM]
54 | NC(=O)Cn1cc(Nc2ncc(Cl)c(N[C@H]3[C@@H](C(N)=O)[C@@H]4C=C[C@H]3C4)n2)cn1 | 19
55 | NC(=O)[C@@H]1[C@H](Nc2nc(Nc3cnn([C@@H]4CCCNC4)c3)ncc2Cl)[C@H]2C=C[C@@H]1C2 | 1
56 | Cn1cc(Nc2ncc(C(F)(F)F)c(Nc3ccccc3C(N)=O)n2)cn1 | 11
57 | NC(=O)[C@@H]1[C@H](Nc2nc(Nc3cnn(CC(=O)O)c3)ncc2Cl)[C@H]2C=C[C@@H]1C2 | 28
58 | Nc1ncc(-c2cnn(CCO)c2)c2scc(-c3ccc(NC(=O)Nc4cccc(F)c4)cc3)c12 [ILORASERTIB] | 12
59 | Cc1cc(Nc2ncc(F)c(N[C@H]3[C@@H](C(N)=O)[C@@H]4C=C[C@H]3C4)n2)ccc1N1CCN(C)CC1 | 1
60 | Cn1cc(Nc2ncc(F)c(N[C@H]3[C@@H](C(N)=O)[C@@H]4C=C[C@H]3C4)n2)cn1 | 111
61 | Cn1cc(Nc2ncc(C(F)(F)F)c(N[C@H]3[C@@H](C(N)=O)C[C@H]4C[C@@H]3C4(C)C)n2)cn1 | 39
62 | Cn1cc(Nc2ncc(C(F)(F)F)c(N[C@H]3[C@@H](C(=O)NCCO)[C@@H]4C=C[C@H]3C4)n2)cn1 | < 1
63 | Cn1cc(Nc2ncc([N+](=O)[O-])c(N[C@H]3[C@@H](C(N)=O)[C@@H]4C=C[C@H]3C4)n2)cn1 | 51
64 | NC(=O)[C@@H]1[C@H](Nc2nc(Nc3cnn(CCO)c3)ncc2Cl)[C@H]2C=C[C@@H]1C2 | < 1
65 | NC(=O)[C@@H]1[C@H](Nc2nc(Nc3cnn(C4CCNCC4)c3)ncc2Cl)[C@H]2C=C[C@@H]1C2 | 1
66 | NC(=O)[C@@H]1[C@H](Nc2nc(Nc3cnn(C[C@H]4CCCN4)c3)ncc2Cl)[C@H]2C=C[C@@H]1C2 | 11
67 | CNC(=O)[C@@H]1[C@H](Nc2nc(Nc3cnn(C)c3)ncc2C(F)(F)F)[C@H]2C=C[C@@H]1C2 | < 1
68 | CNC(=O)Cn1cc(Nc2ncc(Cl)c(N[C@H]3[C@@H](C(N)=O)[C@@H]4C=C[C@H]3C4)n2)cn1 | 11

System: not listed separately
Experiment: Aqueous solubility of the compound at pH 7.4 after 24 hrs by chemiluminescent nitrogen detection
Format: physicochemical
Conditions: not given

Row | SMILES | solubility at 24 h [µM]
69 | NC(=O)Cn1cc(Nc2ncc(Cl)c(N[C@H]3[C@@H](C(N)=O)[C@@H]4C=C[C@H]3C4)n2)cn1 | 68 (≈ 27.4 µg/mL)
70 | NC(=O)[C@@H]1[C@H](Nc2nc(Nc3cnn([C@@H]4CCCNC4)c3)ncc2Cl)[C@H]2C=C[C@@H]1C2 | 70 (≈ 30 µg/mL)
71 | NC(=O)[C@@H]1[C@H](Nc2nc(Nc3cnn(CC(=O)O)c3)ncc2Cl)[C@H]2C=C[C@@H]1C2 | 71 (≈ 28.7 µg/mL)
72 | NC(=O)[C@@H]1[C@H](Nc2nc(Nc3cnn(CCO)c3)ncc2Cl)[C@H]2C=C[C@@H]1C2 | 70 (≈ 27.3 µg/mL)
73 | NC(=O)[C@@H]1[C@H](Nc2nc(Nc3cnn(C4CCNCC4)c3)ncc2Cl)[C@H]2C=C[C@@H]1C2 | 68 (≈ 29.2 µg/mL)
74 | NC(=O)[C@@H]1[C@H](Nc2nc(Nc3cnn(C[C@H]4CCCN4)c3)ncc2Cl)[C@H]2C=C[C@@H]1C2 | 86 (≈ 36.9 µg/mL)
75 | CNC(=O)Cn1cc(Nc2ncc(Cl)c(N[C@H]3[C@@H](C(N)=O)[C@@H]4C=C[C@H]3C4)n2)cn1 | 72 (≈ 30 µg/mL)
